Structures are written as SMILES. Converted amounts (≈) assume the structure as drawn. Like-named read-outs stand apart in the source and are kept apart here.

These results are taken from patent US20050014706A1, “Method of treating tuberculosis” (priority 2003, published 2005).

This test has as its system M. tuberculosis H37Rv. Put plainly: MIC vs. M. tuberculosis H37Rv, microplate Alamar Blue assay (MABA). The class given is cell-based. (In general: Resazurin is reduced to fluorescent resorufin, in cell work by metabolically active cells.)
The mark [1] stands for this setting: Table 3, parallel-synthesis carbazate library products.
The mark [2] stands for this setting: Table 1a, 11,12-carbamate derivatives, read-out: Anti-TB Activity MIC.

In general, MIC refers to the lowest concentration that inhibits growth of the organism. As to `CC[C@H]1OC(=O)[C@H](C)[C@@H](O[C@H]2CC(C)(OC)[C@@H](O)[C@H](C)O2)[C@H](C)[C@@H](O[C@@H]2O[C@H](C)C[C@H](N(C)C)[C@H]2O)[C@](C)(OC)C[C@@H](C)C(=O)[C@H](C)[C@H]2N(NCc3csc(-c4ccccc4)n3)C(=O)O[C@]12C` (stereo partly shown) [F9′], the MIC under setting [1] came out at 12.6 µM (≈ 12.1 µg/mL).
For `CC[C@H]1OC(=O)[C@H](C)[C@@H](O[C@H]2CC(C)(OC)[C@@H](O)[C@H](C)O2)[C@H](C)[C@@H](O[C@@H]2O[C@H](C)C[C@H](N(C)C)[C@H]2O)[C@](C)(OC)C[C@@H](C)C(=O)[C@H](C)[C@H]2N(NCc3cccnc3)C(=O)O[C@]12C` (stereo partly shown) [D9′], under setting [1], the minimum inhibitory concentration (MIC) is over 15 µM.
Consider `CC[C@H]1OC(=O)[C@H](C)[C@@H](O[C@H]2CC(C)(OC)[C@@H](O)[C@H](C)O2)[C@H](C)[C@@H](O[C@@H]2O[C@H](C)C[C@H](N(C)C)[C@H]2O)[C@](C)(OC)C[C@@H](C)C(=O)[C@H](C)[C@H]2N(NCc3cccn3-c3ccc(Cl)cc3)C(=O)O[C@]12C` (stereo partly shown) [E12′], for which, under setting [1], the MIC was 3.4 µM (≈ 3.32 µg/mL).
Consider `CC[C@H]1OC(=O)[C@H](C)[C@@H](O[C@H]2CC(C)(OC)[C@@H](O)[C@H](C)O2)[C@H](C)[C@@H](O[C@@H]2O[C@H](C)C[C@H](N(C)C)[C@H]2O)[C@](C)(OC)C[C@@H](C)C(=O)[C@H](C)[C@H]2N(NCc3cc4ccccc4s3)C(=O)O[C@]12C` (stereo partly shown) [G2′], for which the MIC under setting [1] amounted to 11 µM (≈ 10.3 µg/mL).
With `CCOC(=O)c1cc(-c2ccc(Cl)cc2)oc1CNN1C(=O)O[C@]2(C)[C@@H](CC)OC(=O)[C@H](C)[C@@H](O[C@H]3CC(C)(OC)[C@@H](O)[C@H](C)O3)[C@H](C)[C@@H](O[C@@H]3O[C@H](C)C[C@H](N(C)C)[C@H]3O)[C@](C)(OC)C[C@@H](C)C(=O)[C@H](C)[C@@H]12` (stereo partly shown) [B1′], the MIC under setting [1] is over 18 µM.
Same read-out and setting: the figure for `CCCCc1nc(CNN2C(=O)O[C@]3(C)[C@@H](CC)OC(=O)[C@H](C)[C@@H](O[C@H]4CC(C)(OC)[C@@H](O)[C@H](C)O4)[C@H](C)[C@@H](O[C@@H]4O[C@H](C)C[C@H](N(C)C)[C@H]4O)[C@](C)(OC)C[C@@H](C)C(=O)[C@H](C)[C@@H]23)c(Cl)[nH]1` (stereo partly shown) [B7′] is over 19 µM.
Under setting [1], `CC[C@H]1OC(=O)[C@H](C)[C@@H](O[C@H]2CC(C)(OC)[C@@H](O)[C@H](C)O2)[C@H](C)[C@@H](O[C@@H]2O[C@H](C)C[C@H](N(C)C)[C@H]2O)[C@](C)(OC)C[C@@H](C)C(=O)[C@H](C)[C@H]2N(NCc3c(Cl)cccc3Cl)C(=O)O[C@]12C` (stereo partly shown) [H1′] came in with a minimal inhibitory concentration (MIC) of 11 µM (≈ 10.4 µg/mL).
In the case of `CC[C@H]1OC(=O)[C@H](C)[C@@H](O[C@H]2CC(C)(OC)[C@@H](O)[C@H](C)O2)[C@H](C)[C@@H](O[C@@H]2O[C@H](C)C[C@H](N(C)C)[C@H]2O)[C@](C)(OC)C[C@@H](C)C(=O)[C@H](C)[C@H]2N(NCc3c(C(F)(F)F)nn(C)c3Cl)C(=O)O[C@]12C` (stereo partly shown) [D3′], the MIC under setting [1] stood at 20 µM (≈ 19.7 µg/mL).
Under setting [1], `CC[C@H]1OC(=O)[C@H](C)[C@@H](O[C@H]2CC(C)(OC)[C@@H](O)[C@H](C)O2)[C@H](C)[C@@H](O[C@@H]2O[C@H](C)C[C@H](N(C)C)[C@H]2O)[C@](C)(OC)C[C@@H](C)C(=O)[C@H](C)[C@H]2N(NCc3ccc4c(c3)nnn4C)C(=O)O[C@]12C` (stereo partly shown) [H7′] registered a minimum inhibitory concentration (MIC) of over 22 µM.
In the case of `CCC1OC(=O)C(C)(F)C(=O)C(C)C(OC2OC(C)CC(N(C)C)C2O)C(C)(OC)CC(C)C(=O)C(C)C2N(NCCCc3ccnc4ccccc34)C(=O)OC12C` (stereo not shown) [RU3562], under setting [2], the minimal inhibitory concentration (MIC) was 16 µM (≈ 13 µg/mL).
With `CC[C@H]1OC(=O)[C@H](C)[C@@H](O[C@H]2CC(C)(OC)[C@@H](O)[C@H](C)O2)[C@H](C)[C@@H](O[C@@H]2O[C@H](C)C[C@H](N(C)C)[C@H]2O)[C@](C)(OC)C[C@@H](C)C(=O)[C@H](C)[C@H]2N(/N=C/c3c(C)noc3-c3ccccc3)C(=O)O[C@]12C` (stereo partly shown) [C12′], under setting [1], the MIC is 9 µM (≈ 8.61 µg/mL).
Same read-out and setting: the figure for `CC[C@H]1OC(=O)[C@H](C)[C@@H](O[C@H]2CC(C)(OC)[C@@H](O)[C@H](C)O2)[C@H](C)[C@@H](O[C@@H]2O[C@H](C)C[C@H](N(C)C)[C@H]2O)[C@](C)(OC)C[C@@H](C)C(=O)[C@H](C)[C@H]2N(NCc3cc(Br)cs3)C(=O)O[C@]12C` (stereo partly shown) [F11′] is 12.7 µM (≈ 12.2 µg/mL); for `CC[C@H]1OC(=O)[C@H](C)[C@@H](O[C@H]2CC(C)(OC)[C@@H](O)[C@H](C)O2)[C@H](C)[C@@H](O[C@@H]2O[C@H](C)C[C@H](N(C)C)[C@H]2O)[C@](C)(OC)C[C@@H](C)C(=O)[C@H](C)[C@H]2N(NCc3c(C)[nH]c4ccc([N+](=O)[O-])cc34)C(=O)O[C@]12C` (stereo partly shown) [B11′] it is over 22 µM; for `CC[C@H]1OC(=O)[C@H](C)[C@@H](O[C@H]2CC(C)(OC)[C@@H](O)[C@H](C)O2)[C@H](C)[C@@H](O[C@@H]2O[C@H](C)C[C@H](N(C)C)[C@H]2O)[C@](C)(OC)C[C@@H](C)C(=O)[C@H](C)[C@H]2N(NCc3c(C)noc3C)C(=O)O[C@]12C` (stereo partly shown) [C6′] it is over 17 µM.
In the case of `CC[C@H]1OC(=O)[C@H](C)C(=O)[C@H](C)[C@@H](O[C@@H]2O[C@H](C)C[C@H](N(C)C)[C@H]2O)[C@](C)(OC)C[C@@H](C)C(=O)[C@H](C)[C@@H](O)[C@]1(C)O` [RU56006], the MIC (Table 2a, 11,12-diols, read-out: Anti-TB Activity MIC) was over 128 µM.
Under setting [1], `CC[C@H]1OC(=O)[C@H](C)[C@@H](O[C@H]2CC(C)(OC)[C@@H](O)[C@H](C)O2)[C@H](C)[C@@H](O[C@@H]2O[C@H](C)C[C@H](N(C)C)[C@H]2O)[C@](C)(OC)C[C@@H](C)C(=O)[C@H](C)[C@H]2N(NCc3sc(C)nc3C)C(=O)O[C@]12C` (stereo partly shown) [F5′] had an MIC of over 19 µM.
As for `CC[C@H]1OC(=O)[C@H](C)[C@@H](O[C@H]2CC(C)(OC)[C@@H](O)[C@H](C)O2)[C@H](C)[C@@H](O[C@@H]2O[C@H](C)C[C@H](N(C)C)[C@H]2O)[C@](C)(OC)C[C@@H](C)C(=O)[C@H](C)[C@H]2N(NCc3cccnc3NC(=O)C(C)(C)C)C(=O)O[C@]12C` (stereo partly shown) [E4′], the minimal inhibitory concentration (MIC) under setting [1] is over 27 µM.
`CC[C@H]1OC(=O)[C@H](C)[C@@H](O[C@H]2CC(C)(OC)[C@@H](O)[C@H](C)O2)[C@H](C)[C@@H](O[C@@H]2O[C@H](C)C[C@H](N(C)C)[C@H]2O)[C@](C)(OC)C[C@@H](C)C(=O)[C@H](C)[C@H]2N(NC/C=C/c3cc(OC)c(O)c(OC)c3)C(=O)O[C@]12C` (stereo partly shown) [A6′] came in with a minimal inhibitory concentration (MIC) under setting [1] of 10.2 µM (≈ 10 µg/mL).
For `CC[C@H]1OC(=O)[C@H](C)[C@@H](O[C@H]2CC(C)(OC)[C@@H](O)[C@H](C)O2)[C@H](C)[C@@H](O[C@@H]2O[C@H](C)C[C@H](N(C)C)[C@H]2O)[C@](C)(OC)C[C@@H](C)C(=O)[C@H](C)[C@H]2N(NC/C=C/c3ccccc3)C(=O)O[C@]12C` (stereo partly shown) [A4′], the minimum inhibitory concentration (MIC) under setting [1] was determined as 7 µM (≈ 6.33 µg/mL).
In the case of `CC[C@H]1OC(=O)[C@H](C)C(=O)[C@H](C)[C@@H](O[C@@H]2O[C@H](C)C[C@H](N(C)C)[C@H]2O)[C@](C)(OC)C[C@@H](C)C(=O)[C@H](C)[C@H]2N(NCCc3ccccc3)C(=O)O[C@]12C` [RU70645], the minimal inhibitory concentration (MIC) under setting [2] stood at 14 µM (≈ 10.2 µg/mL).
`CC[C@H]1OC(=O)[C@H](C)[C@@H](O[C@H]2CC(C)(OC)[C@@H](O)[C@H](C)O2)[C@H](C)[C@@H](O[C@@H]2O[C@H](C)C[C@H](N(C)C)[C@H]2O)[C@](C)(OC)C[C@@H](C)C(=O)[C@H](C)[C@H]2N(NCc3cnccc3NC(=O)C(C)(C)C)C(=O)O[C@]12C` (stereo partly shown) [E2′] returned a minimum inhibitory concentration (MIC) under setting [1] of over 27 µM.
Regarding `CCC1OC(=O)C(C)C(OC2CC(C)(OC)C(O)C(C)O2)C(C)C(OC2OC(C)CC(N(C)C)C2O)C(C)(OC)CC(C)C(=O)C(C)C2N(N=CC3=C(Cl)c4cc(F)ccc4OC3)C(=O)OC12C` (stereo not shown) [H9′], the MIC entry under setting [1] is listed as “?3 μM”.
